Measured values: patent US20230330254A1 (Regeneron Pharmaceuticals, Inc., priority 2022, published 2023)
Like-named read-outs stand apart in the source and are kept apart here. Where a SMILES comes first, the peptide text is derived from it. [ ]: non-standard residue; d: D form. The star is where a group is joined. Bip(2'-Et,4'-O(CH2)4NH2) = CCc1cc(OCCCCN)ccc1-c1ccc(C[C@H](N)C(=O)O)cc1; Malonyl(2,2-Me2,histaminyl) = CC(C)(C(=O)NCCc1cnc[nH]1)C(=O)*; Nva(5-(3,5-Me2Ph)) = Cc1cc(C)cc(CCC[C@H](N)C(=O)O)c1; Ala(1H-tetrazol-5-yl) = N[C@@H](Cc1nnn[nH]1)C(=O)O; αMePhe(2-F) = C[C@](N)(Cc1ccccc1F)C(=O)O

Legend:
human GLP1R [1] = biological target: T1, human GLP1R (Homo sapiens, UniProt P43220); test: Human GLP1R cAMP accumulation assay; type: cell-based; set-up: HEK293 cells over-expressing full length human GLP-1R were utilized; expressed in transfected cells; host or cells: HEK293 (HEK293/hGLP1R)
In short: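 cAMP accumulation measured after 30 min at 23° C, with 500 μM IBMX in HEPES-buffered HBSS plus 0.1% BSA, in HEK293 cells expressing full-length hGLP-1R. Levels read by D2-cAMP/antibody immunoassay via standard curve, scaled between low and high controls. EC50 fitted four-parameter over a 10-point curve.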

human GLP1R [2] = biological target: T1, human GLP1R; test: CRE-luciferase reporter assay, HEK293/Myc-hGLP1R/Cre-Luc (Example 9); type: cell-based; set-up: engineered to express full-length human GLP1R, cynomolgus GLP1R; expressed in transfected cells; host or cells: HEK293/CRE-Luc
Method: To test the activity of GLP1R agonist payloads and GLP1R agonist linker-payloads (LPs) in vitro, a cell-based cAMP responsive luciferase reporter assay was developed.
Cells were incubated overnight at 37° C. in 5% CO2. […] Plates were incubated for 5.5 h at 37° C. in 5% CO2. For end-point measurement, 100 μL/well of One-Glo reagent (Promega, #E6051) was added and plates were kept at room temperature for 5-10 minutes. Luciferase activity was measured on Envision Multilabel Plate Reader (Perkin Elmer) in Luminescent mode. The relative light units (RLU) values were obtained and the results were analyzed using nonlinear regression with GraphPad Prism software (GraphPad).

[3] = system: Salmonella typhimurium TA98 and TA100; test: Mini-Ames assay; type: cell-based
Method: The objective of this Mini-Ames study was to evaluate the test article LP11, for its ability to induce reverse mutations in the genome of strains of Salmonella typhimurium TA98 and TA100 in the presence and absence of metabolic activation (S9 mixture).
The Mini-Ames assay was conducted for the test article in the presence and absence of the S9 mixture, concurrently with the negative/solvent control (DMSO) using six wells and positive controls (2 μg/well TA98 alone, 0.2 μg/well TA100 alone or 0.4 μg/well TA98+TA100 in the presence of S9) using three wells. The tested dose levels for the test article, in the presence and absence of S9 mix, were 1000, 400, 160, 64, 25, 10, 4, and 1.5 μg per well, with each dose tested in triplicate. The study was conducted using fresh cultures of the bacterial strains and fresh test article formulations.

[4] = Plasma stability of payloads and linker-payloads, mouse plasma; type: in vitro ADME; conditions: mouse, pooled plasma
Method: The plasma stability of payloads and linker payloads of the disclosure were measured. For the assay, pooled frozen plasma (human, mouse or monkey) was thawed in cold water or a 37° C. water bath prior to experiment. Plasma was centrifuged at 4000 rpm for 5 min if any clots were observed, they were subsequently removed. If required, the pH was adjusted to 7.4±0.1. For the preparation of compounds and positive controls, a 1 mM intermediate solution was prepared by diluting 10 μL of their stock solution with 90 μL DMSO; a 1 mM intermediate solution of the positive control (Propantheline) was prepared by diluting 10 μL of its stock solution with 90 μL ultrapure water. Subsequently, 100 μM dosing solution for each compound was prepared by diluting 20 μL of the intermediate solution (1 mM) with 180 μL 45% MeOH/H2O. 98 μL of plasma was spiked with 2 μL of dosing solution (100 μM) to achieve the final concentration of 2 μM in duplicate. Samples were then incubated at 37° C. in a water bath. […] At each time point, 400 μL of stop solution (200 ng/mL tolbutamide plus 200 ng/mL labetalol in 50% ACN/MeOH) was added to precipitate protein and mixed thoroughly. Sample plates were then centrifuged at 4,000 rpm for 10 min. An aliquot of supernatant (50 μL) was transferred from each well and mixed with 100 μL ultrapure water. The samples were then shaken at 800 rpm for approximately 10 min before submitting for LC-MS/MS analysis.

[5] = Liver microsome stability; type: in vitro ADME, human
Method: To assess the in vitro ADME properties of the LP, microsomal stability assay was performed to determine intrinsic clearance, and plasma protein binding assay was performed to understand the distribution potential.

[6] = biological target: T2, human glucagon receptor (GCGR) (Homo sapiens, UniProt P47871); test: Luciferase reporter assay, HEK293/CRE-Luc/hGCGR (Example 17); type: cell-based; conditions: Table 28; CRE-dependent luciferase reporter activity
T2 construct: full-length human GLP1R, cynomolgus GLP1R, human glucagon receptor (GCGR); expressed in transfected cells; host or cells: HEK293/CRE-Luc

[7] = HEK293/hGLP1R cells, Table 4, read-out: cAMP EC50

T1 sequence (P43220 24-463): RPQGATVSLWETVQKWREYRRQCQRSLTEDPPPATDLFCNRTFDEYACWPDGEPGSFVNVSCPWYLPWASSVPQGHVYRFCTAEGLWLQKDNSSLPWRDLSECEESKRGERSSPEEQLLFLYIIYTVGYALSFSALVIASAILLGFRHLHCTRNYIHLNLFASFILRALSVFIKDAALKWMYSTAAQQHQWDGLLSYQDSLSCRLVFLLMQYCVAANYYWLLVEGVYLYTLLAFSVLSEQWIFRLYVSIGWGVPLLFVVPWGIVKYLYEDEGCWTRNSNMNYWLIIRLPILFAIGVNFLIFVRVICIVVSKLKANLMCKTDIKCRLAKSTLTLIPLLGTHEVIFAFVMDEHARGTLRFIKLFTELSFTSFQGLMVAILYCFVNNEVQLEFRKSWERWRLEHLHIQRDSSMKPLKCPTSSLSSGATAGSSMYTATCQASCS
T2 sequence (P47871 26-477): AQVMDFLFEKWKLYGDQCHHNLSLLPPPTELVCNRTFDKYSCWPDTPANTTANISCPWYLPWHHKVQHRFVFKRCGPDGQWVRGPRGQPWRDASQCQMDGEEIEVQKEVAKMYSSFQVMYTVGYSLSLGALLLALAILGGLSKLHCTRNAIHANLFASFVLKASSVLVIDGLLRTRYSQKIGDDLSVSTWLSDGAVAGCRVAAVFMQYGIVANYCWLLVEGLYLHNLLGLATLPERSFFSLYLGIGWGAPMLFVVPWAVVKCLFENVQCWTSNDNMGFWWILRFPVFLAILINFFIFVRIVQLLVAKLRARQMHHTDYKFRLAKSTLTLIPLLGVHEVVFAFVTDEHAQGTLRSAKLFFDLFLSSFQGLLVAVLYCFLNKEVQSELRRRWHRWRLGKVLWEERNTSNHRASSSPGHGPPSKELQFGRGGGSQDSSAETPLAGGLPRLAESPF

Structure (SMILES) | EC50 (human GLP1R [1]; [7]) [nM] | EC50 (human GLP1R [1]; Table 5C, read-out: c-AMP EC50) [nM] | EC50 (human GLP1R [2]; Table 5C, read-out: GLP1R LUC EC50) [nM] | EC50 (human GLP1R [2]; Table 9, […], read-out: HEK293/Myc-hGLP1R/Cre-Luc EC50) [nM] | fold increase in mean number of revertant colonies vs negative/solvent control [3] [fold] | mutagenicity (Mini-Ames conclusion) ([3]; TA98 and TA100, with and without S9) | Ames (TA98 and TA100) in the presence and absence of S9 ([3]; Table 5C) | cytotoxicity in Mini-Ames ([3]; any dose level (1.5-1000 μg per well), with or without S9 mix) | precipitates in Mini-Ames (naked eye after incubation) ([3]; any dose level, with or without S9 mix) | half-life at 2 µM ([4]; pH 7.4, Mouse, assay time 3 days, Table 5B, read-out: plasma stability T½) [h] | half-life at 2 µM ([4]; pH 7.4, Table 5A, mouse plasma, tested time C (3 days), read-out: plasma stability T½ (hr), mouse) [h] | half-life at 2 µM ([4]; pH 7.4, Table 5C, read-out: Plasma Stability Mouse T½) [h] | CLint(mic) ([5]; Table 7) [µL/min/mg] | CLint scaled ([5]; human, liver microsomes, Table 5C, read-out: Human Liver microsome CLint(liver)) [mL/min/kg] | microsomal CLint ([5]; human, liver microsomes, Table 5C, read-out: Human Liver microsome CLint(mic)) [µL/min/mg] | half-life ([5]; human, liver microsomes, Table 5C, read-out: Human Liver microsome T1/2) [h] | EC50 [6] [nM] | EC50 (human GLP1R [2]; Table 9, 5.5 h, read-out: HEK293/Myc-hGLP1R/Cre-Luc EC50) [nM]
CCc1cc(OCCCCn2cc(COCCOCCOCCOCCOCCOCCOCCOCCN)nn2)ccc1-c1ccc(C[C@H](NC(=O)[C@H](CC(=O)O)NC(=O)[C@H](CO)NC(=O)[C@@H](NC(=O)C(C)(Cc2ccccc2F)NC(=O)[C@@H](NC(=O)CNC(=O)[C@H](Cc2nn[nH]n2)NC(=O)C(C)(C)C(=O)NCCc2cnc[nH]2)[C@@H](C)O)[C@@H](C)O)C(=O)N[C@@H](CCCc2cc(C)cc(C)c2)C(N)=O)cc1 (stereo partly shown) [LP11, NH2-PEG8-triazole-P8] | 0.318 | 0.318 | 0.016 | 0.016 | ≤ 2.0 | negative for mutagenicity | Negative for mutagenicity | no obvious cytotoxicity | No obvious precipitates | > 144 | > 173 | > 168 | <9.6 | < 8.6 | < 9.6 | > 2.42 |  | 
CCc1cc(OCCCCn2cc(COCCOCCOCCOCCOCCOCCOCCOCCN)nn2)ccc1-c1ccc(C[C@H](NC(=O)[C@H](CC(=O)O)NC(=O)[C@H](CO)NC(=O)[C@@H](NC(=O)[C@](C)(Cc2ccccc2F)NC(=O)[C@@H](NC(=O)CNC(=O)[C@H](Cc2nn[nH]n2)NC(=O)C(C)(C)C(=O)NCCc2cnc[nH]2)[C@@H](C)O)[C@@H](C)O)C(=O)N[C@@H](CCCc2cc(C)cc(C)c2)C(N)=O)cc1 [M3190] |  |  |  |  |  |  |  |  |  |  |  |  |  |  |  |  | > 200 | 
CCc1cc(OCCCCN)ccc1-c1ccc(C[C@H](NC(=O)[C@H](CC(=O)O)NC(=O)[C@H](CO)NC(=O)[C@@H](NC(=O)[C@](C)(Cc2ccccc2F)NC(=O)[C@@H](NC(=O)CNC(=O)[C@H](Cc2nn[nH]n2)NC(=O)C(C)(C)C(=O)NCCc2cnc[nH]2)[C@@H](C)O)[C@@H](C)O)C(=O)N[C@@H](CCCc2cc(C)cc(C)c2)C(N)=O)cc1 [P9, (8S,14S,17S,20S,23S,26S)-8-((2H-tetrazol-5-yl)methyl)-26-(((S)-1-(((S)-1-amino-5-(3,5-dimethylphenyl)-1-oxopentan-2-yl)amino)-3-(4′-(4-aminobutoxy)-2′-ethyl-[1,1′-biphenyl]-4-yl)-1-oxopropan-2-yl)carbamoyl)-17-(2-fluorobenzyl)-14,20-bis((R)-1-hydroxyethyl)-23-(hydroxymethyl)-1-(1H-imidazol-5-yl)-5,5,17-trimethyl-4,6,9,12,15,18,21,24-octaoxo-3,7,10,13,16,19,22,25-octaazaoctacosan-28-oic acid] ({Malonyl(2,2-Me2,histaminyl)}-[Ala(1H-tetrazol-5-yl)]GT[αMePhe(2-F)]TSD[Bip(2'-Et,4'-O(CH2)4NH2)][Nva(5-(3,5-Me2Ph))]-NH2) | 0.05 |  |  |  |  |  |  |  |  |  |  |  |  |  |  |  |  | 0.00332
